Results reported in PubChem BioAssay AID328 (DTP/NCI, 2004).
“And” between values parts separate entries of the source, which are not always exact repeats. Equal entries are not always repeated. Toxic doses and inconclusive results are not listed.

System: BDF1 mice, P388 leukemia ip, median survival T/C
Test: NCI In Vivo Anticancer Drug Screen. Data for tumor model P388 Leukemia (intraperitoneal) in B6D2F1 (BDF1) mice
Conditions: endpoint: median survival time, higher = longer survival
Method in brief: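 T/C = treated-group survival ÷ vehicle-control survival; tumour transplanted into mice before dosing.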

[1] = dose: 100.0 mg/kg/injection, schedule: Q04DX003 (ip), vehicle: Klucel (hydroxypropylcellulose) (HPC)
[2] = dose: 200.0 mg/kg/injection, schedule: Q04DX003 (ip), vehicle: Klucel (hydroxypropylcellulose) (HPC)
[3] = dose: 100.0 mg/kg/injection, schedule: Q01DX009 (ip), vehicle: saline with Tween-80
[4] = dose: 200.0 mg/kg/injection, schedule: Q01DX009 (ip), vehicle: saline with Tween-80

CCN(CC)c1ccc(C(=C(c2ccc(N(CC)CC)cc2)c2ccc(N(CC)CC)cc2)c2ccc(N(CC)CC)cc2)cc1
T/C (dose: 50.0 mg/kg/injection, schedule: Q04DX003 (ip), vehicle: Klucel (hydroxypropylcellulose) (HPC)): 100 % of control | T/C [1]: 104 % of control | T/C [2]: 90 % of control

C[C@@H]1CC2=CC(=O)CC[C@]2(C)[C@H]2CC[C@]3(C)[C@@H](O)CC[C@H]3[C@H]12
T/C [3]: 100 % of control | T/C (dose: 100.0 mg/kg/injection, schedule: Q04DX003 (ip), vehicle: saline with Tween-80): 100 % of control | T/C [4]: 95 % of control | T/C (dose: 200.0 mg/kg/injection, schedule: Q04DX003 (ip), vehicle: saline with Tween-80): 109 % of control | T/C (dose: 400.0 mg/kg/injection, schedule: Q01DX009 (ip), vehicle: saline with Tween-80): 90 % of control | T/C (dose: 400.0 mg/kg/injection, schedule: Q04DX003 (ip), vehicle: saline with Tween-80): 95 % of control

COc1cc(C=Nc2cc(Br)c(O)c(Br)c2)ccc1N(CCCl)CCCl
T/C (dose: 3.5 mg/kg/injection, schedule: Q04DX003 (ip), vehicle: Klucel (hydroxypropylcellulose) (HPC)): 163 % of control | T/C (dose: 5.44 mg/kg/injection, schedule: Q04DX003 (ip), vehicle: Klucel (hydroxypropylcellulose) (HPC)): 150 % of control | T/C (dose: 6.2 mg/kg/injection, schedule: Q01DX009 (ip), vehicle: Klucel (hydroxypropylcellulose) (HPC)): 186 % of control | T/C (dose: 8.16 mg/kg/injection, schedule: Q04DX003 (ip), vehicle: Klucel (hydroxypropylcellulose) (HPC)): 172 % of control | T/C (dose: 9.37 mg/kg/injection, schedule: Q01DX009 (ip), vehicle: Klucel (hydroxypropylcellulose) (HPC)): 227 % of control and 259 % of control | T/C (dose: 12.37 mg/kg/injection, schedule: Q04DX003 (ip), vehicle: Klucel (hydroxypropylcellulose) (HPC)): 272 % of control and 220 % of control | T/C (dose: 14.0 mg/kg/injection, schedule: Q01DX009 (ip), vehicle: Klucel (hydroxypropylcellulose) (HPC)): 91 % of control | T/C (dose: 18.75 mg/kg/injection, schedule: Q04DX003 (ip), vehicle: Klucel (hydroxypropylcellulose) (HPC)): 265 % of control and 268 % of control and 272 % of control | T/C (dose: 28.12 mg/kg/injection, schedule: Q04DX003 (ip), vehicle: Klucel (hydroxypropylcellulose) (HPC)): 300 % of control | T/C (dose: 37.5 mg/kg/injection, schedule: Q01DX009 (ip), vehicle: Klucel (hydroxypropylcellulose) (HPC)): 90 % of control | T/C (dose: 37.5 mg/kg/injection, schedule: Q04DX003 (ip), vehicle: Klucel (hydroxypropylcellulose) (HPC)): 113 % of control

O=S(=O)(Nc1c(Cl)c(Cl)c(Cl)c(Cl)c1NS(=O)(=O)c1ccccc1)c1ccccc1
T/C [1]: 100 % of control | T/C [2]: 105 % of control | T/C (dose: 400.0 mg/kg/injection, schedule: Q04DX003 (ip), vehicle: Klucel (hydroxypropylcellulose) (HPC)): 100 % of control

CC(=O)NNC(=O)c1ccccn1
T/C (dose: 4.0 mg/kg/injection, schedule: Q03HX024 (ip), vehicle: saline): 100 % of control | T/C (dose: 8.0 mg/kg/injection, schedule: Q03HX008 (ip), vehicle: saline): 100 % of control | T/C (dose: 8.0 mg/kg/injection, schedule: Q03HX016 (ip), vehicle: saline): 95 % of control | T/C (dose: 8.0 mg/kg/injection, schedule: Q03HX024 (ip), vehicle: saline): 90 % of control | T/C (dose: 16.0 mg/kg/injection, schedule: Q03HX008 (ip), vehicle: saline): 90 % of control | T/C (dose: 16.0 mg/kg/injection, schedule: Q03HX016 (ip), vehicle: saline): 90 % of control | T/C (dose: 16.0 mg/kg/injection, schedule: Q03HX024 (ip), vehicle: saline): 100 % of control | T/C (dose: 19.0 mg/kg/injection, schedule: Q01DX010 (ip), vehicle: water): 95 % of control | T/C (dose: 32.0 mg/kg/injection, schedule: Q01DX009 (ip), vehicle: saline): 90 % of control | T/C (dose: 32.0 mg/kg/injection, schedule: Q01DX009 (oral), vehicle: saline): 90 % of control | T/C (dose: 32.0 mg/kg/injection, schedule: Q03HX008 (ip), vehicle: saline): 95 % of control | T/C (dose: 32.0 mg/kg/injection, schedule: Q03HX016 (ip), vehicle: saline): 90 % of control | T/C (dose: 32.0 mg/kg/injection, schedule: Q03HX024 (ip), vehicle: saline): 90 % of control | T/C (dose: 32.0 mg/kg/injection, schedule: Q04DX003 (ip), vehicle: saline): 90 % of control | T/C (dose: 38.0 mg/kg/injection, schedule: Q01DX010 (ip), vehicle: water): 100 % of control | T/C (dose: 50.0 mg/kg/injection, schedule: Q01DX009 (ip), vehicle: water): 113 % of control | T/C (dose: 50.0 mg/kg/injection, schedule: Q01DX009 (oral), vehicle: water): 109 % of control | T/C (dose: 64.0 mg/kg/injection, schedule: Q01DX001 (ip), vehicle: saline): 90 % of control | T/C (dose: 64.0 mg/kg/injection, schedule: Q01DX001 (oral), vehicle: saline): 90 % of control | T/C (dose: 64.0 mg/kg/injection, schedule: Q01DX009 (ip), vehicle: saline): 90 % of control | T/C (dose: 64.0 mg/kg/injection, schedule: Q01DX009 (oral), vehicle: saline): 90 % of control | T/C (dose: 64.0 mg/kg/injection, schedule: Q03HX008 (ip), vehicle: saline): 95 % of control | T/C (dose: 64.0 mg/kg/injection, schedule: Q03HX016 (ip), vehicle: saline): 90 % of control | T/C (dose: 64.0 mg/kg/injection, schedule: Q03HX024 (ip), vehicle: saline): 90 % of control | T/C (dose: 64.0 mg/kg/injection, schedule: Q04DX003 (ip), vehicle: saline): 100 % of control | T/C (dose: 64.0 mg/kg/injection, schedule: Q08DX002 (ip), vehicle: saline): 90 % of control | T/C (dose: 75.0 mg/kg/injection, schedule: Q01DX010 (ip), vehicle: water): 100 % of control | T/C (dose: 100.0 mg/kg/injection, schedule: Q01DX009 (oral), vehicle: water): 109 % of control | T/C (dose: 128.0 mg/kg/injection, schedule: Q01DX001 (ip), vehicle: saline): 100 % of control | T/C (dose: 128.0 mg/kg/injection, schedule: Q01DX001 (oral), vehicle: saline): 95 % of control | T/C (dose: 128.0 mg/kg/injection, schedule: Q01DX009 (ip), vehicle: saline): 95 % of control | T/C (dose: 128.0 mg/kg/injection, schedule: Q01DX009 (oral), vehicle: saline): 90 % of control | T/C (dose: 128.0 mg/kg/injection, schedule: Q04DX003 (ip), vehicle: saline): 90 % of control | T/C (dose: 128.0 mg/kg/injection, schedule: Q08DX002 (ip), vehicle: saline): 90 % of control | T/C (dose: 256.0 mg/kg/injection, schedule: Q01DX001 (ip), vehicle: saline): 90 % of control | T/C (dose: 256.0 mg/kg/injection, schedule: Q01DX001 (oral), vehicle: saline): 90 % of control | T/C (dose: 256.0 mg/kg/injection, schedule: Q04DX003 (ip), vehicle: saline): 95 % of control

CCCCCCCCS.[Ni]
T/C (dose: 100.0 mg/kg/injection, schedule: Q01DX001 (ip), vehicle: Klucel (hydroxypropylcellulose) (HPC)): 100 % of control | T/C [1]: 113 % of control | T/C (dose: 200.0 mg/kg/injection, schedule: Q01DX001 (ip), vehicle: Klucel (hydroxypropylcellulose) (HPC)): 100 % of control

CC(=O)c1cccc(NC2C(N)C(NC(=O)N(C)C)(C(C)O)C(C)(O)C2(O)COC(=O)c2c(C)cccc2O)c1 (stereo not given)
T/C (dose: 5.4 mg/kg/injection, schedule: Q04DX003 (ip), vehicle: alkali diluted with saline): 167 % of control | T/C (dose: 6.5 mg/kg/injection, schedule: Q04DX003 (ip), vehicle: alkali diluted with saline): 163 % of control | T/C (dose: 8.64 mg/kg/injection, schedule: Q04DX003 (ip), vehicle: alkali diluted with saline): 159 % of control | T/C (dose: 9.0 mg/kg/injection, schedule: Q04DX003 (ip), vehicle: alkali diluted with saline): 170 % of control | T/C (dose: 10.8 mg/kg/injection, schedule: Q04DX003 (ip), vehicle: alkali diluted with saline): 169 % of control

CN(C)N/C=N/S(C)(=O)=O
T/C (dose: 50.0 mg/kg/injection, schedule: Q01DX009 (ip), vehicle: saline): 101 % of control | T/C (dose: 100.0 mg/kg/injection, schedule: Q01DX009 (ip), vehicle: saline): 101 % of control | T/C (dose: 200.0 mg/kg/injection, schedule: Q01DX009 (ip), vehicle: saline): 109 % of control

O=C1CCCCCCC1Cc1cc(O)c(CC2CCCCCCC2=O)cc1O (stereo not given)
T/C (dose: 50.0 mg/kg/injection, schedule: Q01DX009 (ip), vehicle: saline with Tween-80): 90 % of control | T/C [3]: 91 % of control | T/C [4]: 86 % of control

CC1(C)N=C(N)N=C(N)N1c1ccc(C(=O)CCl)cc1
T/C (dose: 10.0 mg/kg/injection, schedule: Q01DX009 (ip), vehicle: saline): 108 % of control | T/C (dose: 20.0 mg/kg/injection, schedule: Q01DX009 (ip), vehicle: saline): 108 % of control | T/C (dose: 40.0 mg/kg/injection, schedule: Q01DX009 (ip), vehicle: saline): 118 % of control

S=c1c(S)c(S)c1=S
T/C (dose: 100.0 mg/kg/injection, schedule: Q04DX002 (ip), vehicle: saline): 100 % of control | T/C (dose: 200.0 mg/kg/injection, schedule: Q04DX002 (ip), vehicle: saline): 100 % of control | T/C (dose: 400.0 mg/kg/injection, schedule: Q04DX002 (ip), vehicle: saline): 100 % of control
